According to ChEMBL document CHEMBL1201862, “PubChem BioAssay data set” (2004):
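Dose response: 5 concentrations. Exposure: 48 h. Format: 96-well plates. Endpoint: linear interpolation; highest concentration if not reached. GI50 marks 50% less growth.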 Active and inactive are the calls of the source. Rule as the data show it: active = GI50 up to about 1.1 µM and inactive = higher.

Key:
Test in all cases: inhibition of tumour cell growth, NCI panel, 48 h
HCT-116 = test system: HCT-116
BT-549 = test system: BT-549
PC-3 = test system: PC-3
HOP-62 = test system: HOP-62
OVCAR-4 = test system: OVCAR-4
NCI-H23 = test system: NCI-H23
NCI-H226 = test system: NCI-H226
SF-539 = test system: SF-539
Hs-578T = test system: Hs-578T
NCI-H460 = test system: NCI-H460
SN12C = test system: SN12C
RPMI-8226 = test system: RPMI-8226
MDA-N = test system: MDA-N
KM12 = test system: KM12
786-0 = test system: 786-0
A549 = test system: A549
NCI/ADR-RES = test system: NCI/ADR-RES
HL-60 = test system: HL-60
A498 = test system: A498
NCI-H522 = test system: NCI-H522

| Structure (SMILES) | GI50 (HCT-116) | GI50 (BT-549) | GI50 (PC-3) | GI50 (HOP-62) | GI50 (OVCAR-4) | GI50 (NCI-H23) | GI50 (NCI-H226) | GI50 (SF-539) | GI50 (Hs-578T) | GI50 (NCI-H460) | GI50 (SN12C) | GI50 (RPMI-8226) | GI50 (MDA-N) | GI50 (KM12) | GI50 (786-0) | GI50 (A549) | GI50 (NCI/ADR-RES) | GI50 (HL-60) | GI50 (A498) | GI50 (NCI-H522) |
| --- | --- | --- | --- | --- | --- | --- | --- | --- | --- | --- | --- | --- | --- | --- | --- | --- | --- | --- | --- | --- |
| O=C1C[C@H](Sc2ccccc2)C2(OCCO2)[C@H]2ON3CCC[C@@H]3[C@@H]12 | 841 nM (active) | 4560 nM (inactive) | 2480 nM (inactive) | 2010 nM (inactive) | 2570 nM (inactive) | 1910 nM (inactive) | 8220 nM (inactive) | 1200 nM (inactive) | 3730 nM (inactive) | 2920 nM (inactive) | 1690 nM (inactive) | 306 nM (active) | 3050 nM (inactive) | 1360 nM (inactive) | 1210 nM (inactive) | 2890 nM (inactive) | 4610 nM (inactive) | 1060 nM (active) | 13200 nM (inactive) | 321 nM (active) |
| CC(C)(C)c1cc(C(=O)/C=C/c2ccc(O)c(O)c2O)cc(C(C)(C)C)c1O | 2730 nM (inactive) | 7400 nM (inactive) | 3670 nM (inactive) | 7080 nM (inactive) | 2770 nM (inactive) | 4030 nM (inactive) | 14100 nM (inactive) | 2920 nM (inactive) | 3990 nM (inactive) | 1780 nM (inactive) | 2800 nM (inactive) | 1590 nM (inactive) | 4380 nM (inactive) | 2580 nM (inactive) | 4430 nM (inactive) | 5060 nM (inactive) | 1690 nM (inactive) | 1770 nM (inactive) | 14000 nM (inactive) | 1080 nM (active) |
| CC1=CC[C@@H]2[C@@H](CC[C@@]2(C)O)C(C)(C)[C@H]1CC[C@@H]1[C@@]2(C)CCC(=O)C(C)(C)O[C@@H]2CC[C@]1(C)O | 19900 nM (inactive) | 19000 nM (inactive) | 29400 nM (inactive) | 32900 nM (inactive) | 39100 nM (inactive) | 34300 nM (inactive) | 22500 nM (inactive) | 17300 nM (inactive) | 22800 nM (inactive) | 17700 nM (inactive) | 22400 nM (inactive) | 19700 nM (inactive) | 25000 nM (inactive) | 15200 nM (inactive) | 24700 nM (inactive) | 24700 nM (inactive) | 21900 nM (inactive) | 16900 nM (inactive) | 31000 nM (inactive) | 18500 nM (inactive) |
| C#C[C@]1(O)[C@@H](CO)O[C@@H](n2ccc(=O)[nH]c2=O)[C@@H]1O | < 10 nM (active) | 374 nM (active) | 250 nM (active) | 147 nM (active) | 430 nM (active) | 428 nM (active) | 74.6 nM (active) | 11.7 nM (active) | 1410 nM (inactive) | < 10 nM (active) | < 18.4 nM (active) | 10.1 nM (active) | 82.2 nM (active) | 144 nM (active) | < 12.1 nM (active) | 30.8 nM (active) | < 13.4 nM (active) | 356 nM (active) | 724 nM (active) | 21.4 nM (active) |
| CC(=O)O[C@H]1C(=O)[C@@]2(C)[C@H]([C@H](OC(=O)c3cccc([N+](=O)[O-])c3)[C@]3(O)C[C@H](OC(=O)[C@H](O)[C@@H](NC(=O)c4ccccc4)c4ccccc4)C(C)=C1C3(C)C)[C@]1(OC(C)=O)CO[C@@H]1C[C@@H]2O | 5.33 nM (active) | 37.6 nM (active) | 6.5 nM (active) | 10.7 nM (active) | 3580 nM (inactive) | 9.12 nM (active) | 2.57 nM (active) | < 2.5 nM (active) | 3.22 nM (active) | 6.01 nM (active) | 6.95 nM (active) | 3.41 nM (active) | 2.85 nM (active) | 4.7 nM (active) | 15.9 nM (active) | 14 nM (active) | 5520 nM (inactive) | < 2.5 nM (active) | 5 nM (active) | 3.62 nM (active) |
